ChEMBL document CHEMBL1135004, “Natural and synthetic geiparvarins are strong and selective MAO-B inhibitors. Synthesis and SAR studies” (Bioorg Med Chem Lett, 2002)

What was measured:
[1] = target: T1, Monoamine oxidase A (Homo sapiens, UniProt P21397); experiment: Inhibitory potency against Monoamine oxidase A at 10 uM
T1 sequence (P21397 whole entry): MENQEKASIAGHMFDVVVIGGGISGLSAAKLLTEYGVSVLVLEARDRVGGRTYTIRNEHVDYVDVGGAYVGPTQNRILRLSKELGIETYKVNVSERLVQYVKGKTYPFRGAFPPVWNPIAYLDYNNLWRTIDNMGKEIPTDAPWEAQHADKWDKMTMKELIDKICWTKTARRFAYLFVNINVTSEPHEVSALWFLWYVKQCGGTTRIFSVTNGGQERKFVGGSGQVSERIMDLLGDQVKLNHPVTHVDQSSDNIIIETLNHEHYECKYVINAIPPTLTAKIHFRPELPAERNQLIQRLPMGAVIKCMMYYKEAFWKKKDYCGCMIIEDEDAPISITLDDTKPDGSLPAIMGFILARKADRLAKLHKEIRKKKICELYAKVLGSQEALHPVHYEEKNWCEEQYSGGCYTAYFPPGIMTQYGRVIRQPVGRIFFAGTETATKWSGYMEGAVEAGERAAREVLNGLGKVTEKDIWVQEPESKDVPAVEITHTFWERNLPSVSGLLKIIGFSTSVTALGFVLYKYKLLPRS

[2] = target: T2, Amine oxidase [flavin-containing] B (Homo sapiens, UniProt P27338); experiment: Inhibitory potency against Monoamine oxidase B
T2 sequence (P27338 whole entry): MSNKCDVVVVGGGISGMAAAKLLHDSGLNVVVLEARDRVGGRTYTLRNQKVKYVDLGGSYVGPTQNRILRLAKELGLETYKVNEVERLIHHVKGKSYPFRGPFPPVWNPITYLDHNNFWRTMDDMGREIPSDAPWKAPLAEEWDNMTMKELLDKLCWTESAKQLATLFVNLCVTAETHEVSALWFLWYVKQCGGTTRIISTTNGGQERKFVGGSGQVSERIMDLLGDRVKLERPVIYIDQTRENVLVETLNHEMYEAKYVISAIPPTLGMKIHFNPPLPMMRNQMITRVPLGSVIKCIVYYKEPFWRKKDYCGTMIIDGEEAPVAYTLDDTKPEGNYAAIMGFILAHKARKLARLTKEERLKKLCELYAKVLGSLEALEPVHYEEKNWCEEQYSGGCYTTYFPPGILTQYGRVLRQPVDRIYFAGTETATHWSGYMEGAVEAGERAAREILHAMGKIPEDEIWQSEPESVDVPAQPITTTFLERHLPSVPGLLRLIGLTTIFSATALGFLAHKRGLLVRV

[3] = target: T3, Amine oxidase [flavin-containing] A (Homo sapiens, UniProt P21397); experiment: Inhibitory potency against Monoamine oxidase A
T3 sequence (P21397 whole entry): T1 sequence (P21397 whole entry)

[4] = target: T1, Monoamine oxidase A; experiment: Inhibitory potency against Monoamine oxidase A at 3 uM

SMILES	inhibition at 10 µM [1] [%]	IC50 [2] [µM]	IC50 [3] [µM]	inhibition at 3 µM [4] [%]
CC(=O)/C=C/C=C/COc1ccc2ccc(=O)oc2c1	26	1.7	–	–
Cc1c(C)c2ccc(OC/C=C/C3=CC(=O)C(C)(C)O3)cc2oc1=O	–	0.631	11.2	–
Cc1cc(=O)oc2cc(OC/C=C/C3=CC(=O)C(C)(C)O3)ccc12	27	0.17	–	–
Cc1cc2ccc(OC/C=C/C3=CC(=O)C(C)(C)O3)cc2oc1=O	–	0.589	15.1	–
C/C(=C\COc1ccc2ccc(=O)oc2c1)C1=CC(=O)C(C)(C)O1 [GEIPARVARIN]	–	0.145	26.9	–

The remaining molecules from weak to strong by IC50 [2], led by results:

inhibition at 10 µM [1] [%]	IC50 [2] [µM]	IC50 [3] [µM]	inhibition at 3 µM [4] [%]	SMILES
–	1.51	–	0	CC1(c2ccccc2)OC(/C=C/COc2ccc3ccc(=O)oc3c2)=CC1=O (stereo unspecified)
37	0.129	–	–	C/C(=C\COc1ccc2c(C)c(C)c(=O)oc2c1)C1=CC(=O)C(C)(C)O1
–	0.0282	24	–	CC1(C)OC(/C=C/COc2ccc3ccc(=O)oc3c2)=CC1=O
